Data: ChEMBL document CHEMBL3352647, “Synthesis and characterization of novel 1,2-oxazine-based small molecules that targets acetylcholinesterase” (Bioorg Med Chem Lett, 2014)
One block for each compound: values may come before it.

How the values were obtained:
[1] = Inhibition of soybean 5-LOX by spectrophotometry; design: species or system Glycine max
Acetylcholinesterase = Acetylcholinesterase (Homo sapiens, UniProt P22303); experiment: Inhibition of AChE (unknown origin) using ACh chloride as substrate preincubated for 15 mins before substrate addition by Ellman method
Chain of Acetylcholinesterase (P22303 whole entry): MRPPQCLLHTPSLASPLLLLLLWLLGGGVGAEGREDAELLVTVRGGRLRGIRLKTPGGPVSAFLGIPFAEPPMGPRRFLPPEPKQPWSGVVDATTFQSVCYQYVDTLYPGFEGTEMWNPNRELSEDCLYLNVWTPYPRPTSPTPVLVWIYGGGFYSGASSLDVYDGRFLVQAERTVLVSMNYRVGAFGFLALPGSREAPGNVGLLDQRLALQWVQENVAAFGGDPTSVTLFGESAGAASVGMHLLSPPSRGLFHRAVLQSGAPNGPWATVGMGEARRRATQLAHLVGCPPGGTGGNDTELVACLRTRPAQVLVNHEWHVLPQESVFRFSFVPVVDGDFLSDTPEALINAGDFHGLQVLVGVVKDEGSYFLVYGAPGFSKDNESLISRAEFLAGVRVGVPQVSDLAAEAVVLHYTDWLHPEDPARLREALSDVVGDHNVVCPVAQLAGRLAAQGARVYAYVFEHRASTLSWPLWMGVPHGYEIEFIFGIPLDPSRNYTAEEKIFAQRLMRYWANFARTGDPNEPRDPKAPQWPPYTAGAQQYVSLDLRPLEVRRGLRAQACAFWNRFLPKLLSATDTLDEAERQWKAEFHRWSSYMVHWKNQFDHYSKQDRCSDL

SMILES: CC(=O)N1OC(C)(C)CC(c2ccccc2)=C1CN1C(=O)c2ccccc2C1=O
IC50 [1]: 1.88 µM
IC50 (Acetylcholinesterase): 2.5 µM

SMILES: COC(=O)C(CC1=C(c2ccc(OC)cc2)CC(C)(C)ON1C(C)=O)C(=O)OC
IC50 [1]: 1.23 µM
IC50 (Acetylcholinesterase): 14.3 µM

SMILES: CC1(C)C[C@@H](c2ccccc2)C(CN2C(=O)c3ccccc3C2=O)=NO1
IC50 [1]: 30 µM
IC50 (Acetylcholinesterase): 65.3 µM

IC50 [1]: 66.9 µM
SMILES: COC(=O)C(CC1=NOC(C)(C)C[C@H]1c1ccc(OC)cc1)C(=O)OC

SMILES: COC(=O)C(CC1=C(c2ccc(Cl)cc2)CC(C)(C)ON1C(C)=O)C(=O)OC
IC50 (Acetylcholinesterase): 46.8 µM

SMILES: COC(=O)CC1=NO[C@@H]2CCCC[C@@H]2[C@H]1c1ccccc1
IC50 [1]: 16.1 µM
IC50 (Acetylcholinesterase): 35.1 µM

SMILES: COC(=O)CC1=NO[C@@H]2[C@H]3CC[C@H](C3)[C@@H]2[C@H]1c1ccccc1
IC50 [1]: 16.7 µM
IC50 (Acetylcholinesterase): 6.3 µM

IC50 [1]: 21.1 µM
SMILES: COC(=O)C(CC1=NO[C@@H]2[C@@H]3CC[C@@H](C3)[C@@H]2[C@H]1c1ccccc1)C(=O)OC

SMILES: COC(=O)C(CC1=C(c2ccccc2)CC(C)(C)ON1C(C)=O)C(=O)OC
IC50 [1]: 6.32 µM
IC50 (Acetylcholinesterase): 12 µM

SMILES: COC(=O)C(CC1=NO[C@@H]2CCCC2[C@H]1c1ccccc1)C(=O)OC (single isomer, unassigned)
IC50 [1]: 81.7 µM
IC50 (Acetylcholinesterase): 75.4 µM

IC50 [1]: 33.8 µM
SMILES: COC(=O)C(CC1=NO[C@@H]2CCCC[C@@H]2[C@H]1c1ccc(OC)cc1)C(=O)OC
